Experimental data: PubChem BioAssay AID1745844 (Carcinogenic Potency Database (CPDB), 2022)
Calls of active or inactive are those of the source. The rule behind the calls is not given here.

Tested on: rodent lifetime carcinogenesis bioassay, tumor incidence TD50
Experiment: carcinogenic potency in animals, long-term in vivo studies, CPDB compilation (AID 1745844)
[1] = mouse, strain B6AKF1, females, oral dosing, site: any site (literature study), lesion: several types, types named in the paper, dosed 76 weeks, study length 76 weeks
[2] = mouse, strain B6AKF1, females, oral dosing, site: liver, lesion: hepatoma, dosed 76 weeks, study length 76 weeks
[3] = mouse, strain B6AKF1, females, oral dosing, site: lung, lesion: adenoma, dosed 76 weeks, study length 76 weeks
[4] = mouse, strain B6AKF1, males, oral dosing, site: any site (literature study), lesion: several types, types named in the paper, dosed 76 weeks, study length 76 weeks
[5] = mouse, strain B6AKF1, males, oral dosing, site: liver, lesion: hepatoma, dosed 76 weeks, study length 76 weeks
[6] = mouse, strain B6AKF1, males, oral dosing, site: lung, lesion: adenoma, dosed 76 weeks, study length 76 weeks
[7] = mouse, strain B6C3F1, females, oral dosing, site: liver, lesion: hepatoma, dosed 76 weeks, study length 76 weeks
[8] = mouse, strain B6C3F1, males, oral dosing, site: any site (literature study), lesion: several types, types named in the paper, dosed 76 weeks, study length 76 weeks
[9] = mouse, strain B6C3F1, males, oral dosing, site: liver, lesion: hepatoma, dosed 76 weeks, study length 76 weeks
[10] = mouse, strain B6C3F1, males, oral dosing, site: lung, lesion: adenoma, dosed 76 weeks, study length 76 weeks

S=c1[nH]c2ccccc2s1
1900 mg/kg/day: TD50 (rat, strain Fischer 344, males, by gavage, site: subcutaneous tissue, lesion: fibroma + neurofibroma, dosed 103 weeks, study length 104 weeks)
1710 mg/kg/day: TD50 (rat, strain Fischer 344, males, by gavage, site: preputial gland, lesion: adenoma, NOS, dosed 103 weeks, study length 104 weeks)
333 mg/kg/day: TD50 (rat, strain Fischer 344, males, by gavage, site: pituitary gland, anterior, lesion: adenoma, NOS, dosed 103 weeks, study length 104 weeks)
active: TD50 (rat, strain Fischer 344, females, by gavage, site: adrenal medulla, lesion: pheochromocytoma, dosed 103 weeks, study length 104 weeks) 805 mg/kg/day | TD50 (rat, strain Fischer 344, females, by gavage, site: pituitary gland, anterior, lesion: adenoma, NOS, dosed 103 weeks, study length 104 weeks) 343 mg/kg/day | TD50 (rat, strain Fischer 344, males, by gavage, site: adrenal medulla, lesion: pheochromocytoma + pheochromocytoma, malignant, dosed 103 weeks, study length 104 weeks) 394 mg/kg/day | TD50 (rat, strain Fischer 344, males, by gavage, site: multiple organs, lesion: mononuclear-cell leukemia, dosed 103 weeks, study length 104 weeks) 401 mg/kg/day | TD50 (rat, strain Fischer 344, males, by gavage, site: pancreas, lesion: acinar-cell adenoma, dosed 103 weeks, study length 104 weeks) 345 mg/kg/day | TD50 (rat, strain Fischer 344, males, by gavage, site: preputial gland, lesion: adenoma, NOS + carcinoma, NOS, dosed 103 weeks, study length 104 weeks) 1580 mg/kg/day
136 mg/kg/day: TD50 (rat, strain Fischer 344, males, by gavage, site: any site (literature study), lesion: several types, types named in the paper, dosed 103 weeks, study length 104 weeks)
240 mg/kg/day: TD50 (rat, strain Fischer 344, males, by gavage, site: testis, lesion: interstitial-cell tumor, dosed 103 weeks, study length 104 weeks)
3200 mg/kg/day: TD50 (rat, strain Fischer 344, males, by gavage, site: multiple organs + tunica albuginea, lesion: mesothelioma, malignant + mesothelioma, NOS, dosed 103 weeks, study length 104 weeks)
157 mg/kg/day: TD50 (rat, strain Fischer 344, males, by gavage, site: adrenal medulla + multiple organs + pancreas + preputial gland, lesion: pheochromocytoma + pheochromocytoma, malignant + mononuclear-cell leukemia + acinar-cell adenoma + adenoma, NOS + carcinoma, NOS, dosed 103 weeks, study length 104 weeks)
576 mg/kg/day: TD50 (rat, strain Fischer 344, females, by gavage, site: any site (literature study), lesion: several types, types named in the paper, dosed 103 weeks, study length 104 weeks)
247 mg/kg/day: TD50 (rat, strain Fischer 344, females, by gavage, site: adrenal medulla + pituitary gland, anterior, lesion: pheochromocytoma + adenoma, NOS, dosed 103 weeks, study length 104 weeks)
1730 mg/kg/day: TD50 (rat, strain Fischer 344, males, by gavage, site: subcutaneous tissue, lesion: fibrosarcoma + fibroma + neurofibroma + sarcoma, NOS, dosed 103 weeks, study length 104 weeks)
2200 mg/kg/day: TD50 (rat, strain Fischer 344, males, by gavage, site: subcutaneous tissue, lesion: fibroma, dosed 103 weeks, study length 104 weeks)
2160 mg/kg/day: TD50 (mouse, strain B6C3F1, females, by gavage, site: liver, lesion: hepatocellular adenoma + hepatocellular carcinoma + neoplastic nodule, dosed 103 weeks, study length 104 weeks) | TD50 (mouse, strain B6C3F1, females, by gavage, site: liver, lesion: hepatocellular adenoma + hepatocellular carcinoma, dosed 103 weeks, study length 104 weeks)
3700 mg/kg/day: TD50 (mouse, strain B6C3F1, males, by gavage, site: liver, lesion: hepatocellular adenoma + hepatocellular carcinoma + neoplastic nodule, dosed 103 weeks, study length 104 weeks)
inactive: carcinogen call [1] negative | carcinogen call [2] negative | carcinogen call [3] negative | TD50 [4] 105 mg/kg/day | carcinogen call [5] negative | carcinogen call [6] negative | TD50 (mouse, strain B6C3F1, females, oral dosing, site: any site (literature study), lesion: several types, types named in the paper, dosed 76 weeks, study length 76 weeks) 283 mg/kg/day | carcinogen call [7] negative | TD50 (mouse, strain B6C3F1, females, oral dosing, site: lung, lesion: adenoma, dosed 76 weeks, study length 76 weeks) 283 mg/kg/day | TD50 (mouse, strain B6C3F1, males, by gavage, site: any site (literature study), lesion: several types, types named in the paper, dosed 103 weeks, study length 104 weeks) 3330 mg/kg/day | TD50 [8] 17 mg/kg/day | TD50 [9] 56.2 mg/kg/day | TD50 [10] 120 mg/kg/day

[N-]=[N+]=O
inactive: carcinogen call (mouse, strain Swiss Webster, females, inhaled, site: liver, lesion: one or several types, types not named, dosed 78 weeks, study length 83 weeks) negative | TD50 (mouse, strain Swiss Webster, females, inhaled, site: lung, lesion: adenoma, dosed 78 weeks, study length 83 weeks) 309000 mg/kg/day | carcinogen call (mouse, strain Swiss Webster, females, inhaled, site: several sites, sites named in the paper, lesion: one or several types, types not named, dosed 78 weeks, study length 83 weeks) negative | carcinogen call (mouse, strain Swiss Webster, males, inhaled, site: liver, lesion: one or several types, types not named, dosed 78 weeks, study length 83 weeks) negative | carcinogen call (mouse, strain Swiss Webster, males, inhaled, site: lung, lesion: adenoma, dosed 78 weeks, study length 83 weeks) negative | carcinogen call (mouse, strain Swiss Webster, males, inhaled, site: several sites, sites named in the paper, lesion: one or several types, types not named, dosed 78 weeks, study length 83 weeks) negative

Cl[C@@H]1OCCO[C@H]1Cl
7.04 mg/kg/day: TD50 (mouse, strain Ha/ICR, females, i.p., site: lung, lesion: papillary tumor, dosed 64 weeks, study length 64 weeks)

CN(N=O)c1cccnc1
inactive: carcinogen call (rat, strain BD VI, females, by gavage, site: any site (literature study), lesion: benign tumor, dosed 116 weeks, study length 116 weeks) negative | TD50 (rat, strain BD VI, females, by gavage, site: any site (literature study), lesion: malignant tumor, dosed 116 weeks, study length 116 weeks) 6.09 mg/kg/day | carcinogen call (rat, strain BD VI, females, by gavage, site: any site (literature study), lesion: several types, types named in the paper, dosed 116 weeks, study length 116 weeks) negative | carcinogen call (rat, strain BD VI, females, by gavage, site: liver, lesion: several types, types named in the paper, dosed 116 weeks, study length 116 weeks) negative

O=[N+]([O-])c1ccc2c(c1)Cc1ccccc1-2
active: TD50 (rat, strain Wistar, males, in feed, site: forestomach, lesion: several types, types named in the paper, dosed 47 weeks, study length 104 weeks) 0.285 mg/kg/day | TD50 (rat, strain Wistar, males, in feed, site: forestomach, lesion: squamous-cell carcinoma, dosed 47 weeks, study length 104 weeks) 1.12 mg/kg/day | TD50 (rat, strain Wistar, males, in feed, site: kidney, lesion: cortical carcinoma, dosed 47 weeks, study length 104 weeks) 2.35 mg/kg/day | TD50 (rat, strain Wistar, males, in feed, site: kidney, lesion: several types, types named in the paper, dosed 47 weeks, study length 104 weeks) 3 mg/kg/day | TD50 (rat, strain Wistar, males, in feed, site: liver, lesion: hepatocellular carcinoma, dosed 47 weeks, study length 104 weeks) 2.1 mg/kg/day

CCCCCCCCCCCCN(C)N=O
2.75 mg/kg/day: TD50 (rat, strain Fischer 344, males, by gavage, site: pancreatic islets, lesion: islet-cell carcinoma, dosed 30 weeks, study length 112 weeks)
1.32 mg/kg/day: TD50 (rat, strain Fischer 344, females, by gavage, site: lung, lesion: one or several types, types not named, dosed 30 weeks, study length 65 weeks)
0.97 mg/kg/day: TD50 (rat, strain Fischer 344, males, by gavage, site: all sites, lesion: leukemia, dosed 30 weeks, study length 112 weeks)
active: TD50 (rat, strain Fischer 344, females, by gavage, site: urinary bladder, lesion: one or several types, types not named, dosed 30 weeks, study length 65 weeks) 0.656 mg/kg/day | carcinogen call (rat, strain Fischer 344, males, by gavage, site: any site (literature study), lesion: several types, types named in the paper, dosed 30 weeks, study length 112 weeks) positive | TD50 (rat, strain Fischer 344, males, by gavage, site: forestomach, lesion: carcinoma, dosed 30 weeks, study length 112 weeks) 5.07 mg/kg/day | TD50 (rat, strain Fischer 344, males, by gavage, site: forestomach, lesion: papilloma, dosed 30 weeks, study length 112 weeks) 13.9 mg/kg/day | TD50 (rat, strain Fischer 344, males, by gavage, site: liver, lesion: hepatocellular carcinoma, dosed 30 weeks, study length 112 weeks) 8.98 mg/kg/day | TD50 (rat, strain Fischer 344, males, by gavage, site: lung, lesion: adenocarcinoma, dosed 30 weeks, study length 112 weeks) 6.54 mg/kg/day | TD50 (rat, strain Fischer 344, males, by gavage, site: lung, lesion: adenoma, dosed 30 weeks, study length 112 weeks) 28.5 mg/kg/day | carcinogen call (rat, strain Fischer 344, males, by gavage, site: urinary bladder, lesion: transitional-cell carcinoma, dosed 28 weeks, study length 66 weeks) positive | TD50 (rat, strain Fischer 344, males, by gavage, site: urinary bladder, lesion: transitional-cell carcinoma, dosed 30 weeks, study length 112 weeks) 0.487 mg/kg/day

O=C1NCCN1
inactive: TD50 [1] 473 mg/kg/day | carcinogen call [2] negative | TD50 [3] 505 mg/kg/day | carcinogen call [4] negative | TD50 [5] 500 mg/kg/day | carcinogen call [6] negative | carcinogen call (mouse, strain B6C3F1, females, oral dosing, site: any site (literature study), lesion: one or several types, types not named, dosed 76 weeks, study length 76 weeks) negative | carcinogen call [7] negative | carcinogen call (mouse, strain B6C3F1, females, oral dosing, site: lung, lesion: several types, types named in the paper, dosed 76 weeks, study length 76 weeks) negative | TD50 [8] 87.1 mg/kg/day | TD50 [9] 242 mg/kg/day | TD50 [10] 242 mg/kg/day

C/C=C/C=C/C(=O)O
inactive: TD50 (mouse, strain ASH-CS1, females, in feed, site: liver, lesion: hyperplastic nodule, dosed 80 weeks, study length 80 weeks) 362000 mg/kg/day | carcinogen call (mouse, strain ASH-CS1, females, in feed, site: lung, lesion: adenoma, dosed 80 weeks, study length 80 weeks) negative | carcinogen call (mouse, strain ASH-CS1, males, in feed, site: liver, lesion: hyperplastic nodule, dosed 80 weeks, study length 80 weeks) negative | carcinogen call (mouse, strain ASH-CS1, males, in feed, site: lung, lesion: adenoma, dosed 80 weeks, study length 80 weeks) negative | carcinogen call (rat, strain Wistar, females, in feed, site: any site (literature study), lesion: malignant tumor, dosed 104 weeks, study length 104 weeks) negative | carcinogen call (rat, strain Wistar, females, in feed, site: any site (literature study), lesion: several types, types named in the paper, dosed 104 weeks, study length 104 weeks) negative | TD50 (rat, strain Wistar, females, in feed, site: liver, lesion: hemangioma, dosed 104 weeks, study length 104 weeks) 34000 mg/kg/day | TD50 (rat, strain Wistar, males, in feed, site: any site (literature study), lesion: malignant tumor, dosed 104 weeks, study length 104 weeks) 51400 mg/kg/day | TD50 (rat, strain Wistar, males, in feed, site: any site (literature study), lesion: several types, types named in the paper, dosed 104 weeks, study length 104 weeks) 33900 mg/kg/day | carcinogen call (rat, strain Wistar, males, in feed, site: liver, lesion: hemangioma, dosed 104 weeks, study length 104 weeks) negative
